Tests used:
actin stress fibers [1] = experiment: Actin stress fibers in HUVEC during S. pyogenes infection; assay type: cell-based, human; details: ML 141 10 μM, 18-20 h, MOI 30, 2 h
Experimental: FIG. 13 is an image depicting ML 141 decreasing actin stress fiber depolymerization during infection. HUVEC were incubated with vehicle control dimethyl sulfoxide (DMSO) or with ML 141 (10 μM) 18-20 h prior to infection with Streptococcus pyogenes at a multiplicity of infection of 30 (2 h). Actin was detected using Alexa Fluor 488 phalloidin. Data are presented as the percentage of HUVEC with no detectable actin stress fibers. 100-200 cells/treatment were evaluated from randomly selected fields. Scale bar is 50 μm (P<0.05 by χ^2 test of association).
For actin assessment, HUVEC were seeded at 6×10^5 cells/ml in 35 mm glass-bottom dishes (MatTek, Ashland, Mass.) that had been coated with Attachment Factor. HUVEC were pretreated with ML 141 or with DMSO and treated with gentamicin as described above. HUVEC were washed three times with PBS and fixed with 4% paraformaldehyde for 30 min, RT. HUVEC were gently washed four times with PBS, permeabilized and blocked with 1% BSA/0.1% Triton (Sigma-Aldrich, T8787). HUVEC were gently washed four times with PBS, probed for actin with Alexa Fluor 488 phalloidin (1:40, Life Technologies, A12379) in PBS (30 min, RT) and washed three more times with PBS. […] A total of 200 HUVEC were assessed for actin stress fiber disassembly from randomly selected fields-of-view. […]

[2] = In vivo toxicity, single intraperitoneal injection; details: dissolved in polyethylene glycol, C57BL/6 mice
Experimental: (§1) Specific pharmacologic inhibition of CDC42 has been examined to determine whether it is sufficient in the inhibition of host cell invasion by S. aureus. Host cell cytotoxicity was undetectable below 30 μM in vitro. The highest concentration of ML 141 introduced in vivo without detectable toxicity was 100 mg/kg body weight [BW]. The compound was dissolved in polyethylene glycol and administered as a single intraperitoneal injection to C57BL/6 mice.

RAW 264.7 cells = experiment: Cytotoxicity by propidium iodide, RAW 264.7 cells; assay type: cell-based; details: RAW 264.7 pretreated 18-20 h
Staphylococcus aureus [3] = experiment: S. aureus invasion of monocytic cell line U937, flow cytometry; assay type: cell-based; details: pretreatment 0.05 μM, 1 hour
Experimental: FIG. 1 illustrates ML 141 limits host cell invasion. The monocytic cell line U937 was pretreated with the vehicle control dimethyl sulfoxide (DMSO) or with ML 141 (0.05 μM, 1 h) followed by infection with Alexa Fluor 488-labeled S. aureus (1 hour). The % of 488^+ cells decreased with ML 141 treatment.
as §1

[4] = system: Human umbilical vein endothelial cells; experiment: Transmission electron microscopy of infected HUVEC; assay type: cell-based; details: ML 141 10 μM, S. aureus MOI 30, 2 h
Experimental: FIG. 9 is an image depicting ML 141 limiting damage to host cells. Human umbilical vein endothelial cells were incubated with the vehicle control polyethylene glycol (PEG) or with ML 141 (10 μM) 18-20 h prior to infection with Staphylococcus aureus at a multiplicity of infection of 30 (2 h). Following infection, extracellular bacteria were removed by incubating with lysostaphin and gentamicin (45 min), antimicrobials with limited mammalian membrane permeability. Antimicrobial-containing media was replenished and incubation extended an additional 24 h. Cells were fixed, stained, and examined by transmission electron microscopy. White arrow indicates mitochondria. Black arrow indicates filopodia. White arrowhead indicates membranous structure surrounding bacteria. Black arrowhead indicates dividing bacteria. Scale bar is 5 μm.
HUVEC were plated onto glass coverslips at […], pretreated and infected at a multiplicity of infection (MOI) of 30 for 2 h. Extracellular bacteria were removed and cells incubated for an additional 24 h in media containing antibiotics. […]

actin stress fibers [5] = experiment: Actin stress fiber depolymerization in HUVEC during S. aureus infection; assay type: cell-based, human; details: 18-20 h pretreatment, S. aureus 1 h
Experimental: (§2) FIG. 8A is an image depicting ML 141 limiting actin stress fiber depolymerization during infection. Human umbilical vein endothelial cells (HUVEC) were incubated with ML 141 or with the vehicle control polyethylene glycol (PEG) 18-20 h prior to infection with Staphylococcus aureus (1 h). Actin was detected using Alexa Fluor 488 phalloidin. Arrows indicate intact actin stress fibers. Arrowhead indicates cell lacking actin stress fibers. 100 cells/treatment were evaluated from randomly selected fields. Data are presented as the % of cells in which actin stress fibers were not detected. Scale bar is 50 μm.
as §2, with “8B” for “8A”, “RSM 06” for “ML 141”, “200” for “Arrows indicate intact actin stress fibers. Arrowhead indicates cell lacking actin stress fibers. 100”
as §2, with “8C” for “8A”, “RSM 16” for “ML 141”, “200” for “Arrows indicate intact actin stress fibers. Arrowhead indicates cell lacking actin stress fibers. 100”
HUVEC are plated at 1×10^5 cells/ml into 35 mm glass-bottom dishes (MatTek, Ashland, Mass.) are coated with Attachment Factor, are pretreated, and are infected (1.2×10^8 CFU) as described above. […] Alexa 488 is excited by the 488 nanommeter Ar laser line and is detected using a 505-530 nanometer bandpass filter. […] Maximum pixel projections from the Z-stacks are generated and are analyzed for actin morphology.

Staphylococcus aureus [6] = experiment: Assessment of bactericidal activity (DMEM, 10% fetal bovine serum); assay type: cell-based; details: 3.2 × 10^6 CFU S. aureus, 1 h in DMEM with 10% fetal bovine serum; head prints 20 mM

COc1ccc(C2CC(c3ccccc3)=NN2c2ccc(S(N)(=O)=O)cc2)cc1 (stereo not shown) [ML 141, 4-[3-(4-methoxyphenyl)-5-phenyl-3,4-dihydropyrazol-2-yl]benzenesulfonamide]
reordering of actin stress fibers during S. pyogenes infection (actin stress fibers [1]): less reordering of actin stress fibers
highest concentration introduced in vivo without detectable toxicity [2]: 100 mg/kg body weight
Mean fluorescence intensity (×10^3 ± SEM), Compound (10 μM) (RAW 264.7 cells): 2.5 ± 0.3 ×10^3
invasion by S. aureus (% of 488+ cells) (Staphylococcus aureus [3]): decreased invasion
host cell ultrastructure 24 h post-invasion (organelles) [4]: remained intact
depolymerization of actin stress fibers during infection (actin stress fibers [5]): remained intact
CFU/mL (×10^9 ± SEM), Compound (Staphylococcus aureus [6]): 0.9 ± 0.09 ×10^9 CFU/mL
